According to patent US7183276B2, “Azole compounds” (Takeda Pharmaceutical Company Limited, priority 2002, dated 2007):

| SMILES | melting point [°C] |
| --- | --- |
| O=C(CCc1oc(-n2cnc3ccccc32)nc1-c1ccc(Cl)cc1)NCc1ccccc1 [Example 132, 3-[2-(1H-benzimidazol-1-yl)-4-(4-chlorophenyl)-5-oxazolyl]-N-benzylpropionamide] | 205 to 206 |
| O=C(CCc1oc(-n2cnc3ccccc32)nc1-c1ccc(Cl)cc1)NCc1ccccn1 [Example 154, 3-[2-(1H-benzimidazol-1-yl)-4-(4-chlorophenyl)-5-oxazolyl]-N-(2-pyridinylmethyl)propionamide] | 157 to 158 |
| CCOP(=O)(Cc1ccc(NC(=O)CCc2sc(NS(=O)(=O)c3ccccc3)nc2-c2ccc(Cl)cc2)cc1)OCC | 213 to 214 |
| O=C(CCc1oc(-n2cnc3ccccc32)nc1-c1ccc(Cl)cc1)NCc1ccc(F)c(Cl)c1 [Example 173, 3-[2-(1H-benzimidazol-1-yl)-4-(4-chlorophenyl)-5-oxazolyl]-N-(3-chloro-4-fluorobenzyl)propionamide] | 188 to 189 |
| CCOP(=O)(Cc1ccc(NC(=O)CCc2sc(NC(=S)NCc3ccccc3)nc2-c2ccc(Cl)cc2)cc1)OCC | 202 to 203 |
| CCOP(=O)(Cc1ccc(NC(=O)CCc2oc(-n3nnc4ccccc43)nc2-c2ccc(Cl)cc2)cc1)OCC | 91 to 92 |
| CCOP(=O)(Cc1ccc(NC(=O)CCc2sc(NC(=S)NC(=O)c3ccccc3)nc2-c2ccc(Cl)cc2)cc1)OCC | 208 to 209 |
| CSc1ccc(NC(=O)CCc2oc(-n3cnc4ccccc43)nc2-c2ccc(Cl)cc2)cc1 [Example 96, 3-[2-(1H-benzimidazol-1-yl)-4-(4-chlorophenyl)-5-oxazolyl]-N-{4-(methylsulfanyl)phenyl}propionamide] | 276 to 277 |
| COc1cc(NC(=O)CCc2oc(-n3cnc4ccccc43)nc2-c2ccc(Cl)cc2)cc(OC)c1OC [Example 127, 3-[2-(1H-benzimidazol-1-yl)-4-(4-chlorophenyl)-5-oxazolyl]-N-(3,4,5-trimethoxyphenyl)propionamide] | 228 to 229 |
| CS(=O)(=O)C1CCN(C(=O)CCc2oc(-n3cnc4ccccc43)nc2-c2ccc(Cl)cc2)CC1 [Example 307, 1-{3-[2-(1H-benzoimidazol-1-yl)-4-(4-chlorophenyl)-5-oxazolyl]propanoyl}-4-(methylsulfonyl)piperidine] | 215 to 216 |
| CCOP(=O)(Cc1ccc(NC(=O)CCc2sc(-n3cnc4ccccc43)nc2-c2ccccc2)cc1)OCC | 142 to 143 |
| COC(=O)c1ccc(NC(=O)CCc2sc(-c3ccccc3)nc2-c2ccc(Cl)cc2)cc1 [Example 45, 3-[4-(4-chlorophenyl)-2-phenyl-5-thiazolyl]-N-[4-(methoxycarbonyl)phenyl]propionamide] | 177 to 178 |
| CCOP(=O)(Cc1ccc(NC(=O)CCc2oc(-n3ccnc3)nc2-c2ccc(Cl)cc2)cc1)OCC | 196 to 197 |
| O=C(CCc1oc(-n2cnc3ccccc32)nc1-c1ccc(Cl)cc1)N1CCS(=O)(=O)CC1 [Example 194, 4-{3-[2-(1H-benzimidazol-1-yl)-4-(4-chlorophenyl)-5-oxazolyl]propanoyl}thiomorpholine-1,1-dioxide] | 227 to 228 |
| CCOP(=O)(Cc1ccc(NC(=O)CCCc2oc(-c3ccccc3)nc2-c2ccc(Cl)cc2)cc1)OCC | 152 to 153 |
| O=C(CCc1oc(-n2cnc3ccccc32)nc1-c1ccc(Cl)cc1)NCc1ccc(-c2csnn2)cc1 [Example 150, 3-[2-(1H-benzimidazol-1-yl)-4-(4-chlorophenyl)-5-oxazolyl]-N-[4-(1,2,3-thiadiazol-4-yl)benzyl]propionamide] | 173 to 174 |
| O=C(CCc1oc(-c2ccccc2)nc1-c1ccc(Cl)cc1)Nc1ccc(CN2CCCCC2)cc1 [Example 95, 3-[4-(4-chlorophenyl)-2-phenyl-5-oxazolyl]-N-{4-[(1-piperidinyl)methyl]phenyl}propionamide] | 223 to 225 |
| CNC(=O)Cc1ccc(NC(=O)CCc2oc(-n3cnc4ccccc43)nc2-c2ccc(Cl)cc2)cc1 [Example 143, 2-[4-({3-[2-(1H-benzimidazol-1-yl)-4-(4-chlorophenyl)-5-oxazolyl]propanoyl}amino)phenyl]-N-methylacetamide] | 219 to 221 |
| CCOP(=O)(OCC)C(F)c1ccc(NC(=O)CCc2oc(-n3cnc4ccccc43)nc2-c2ccc(Cl)cc2)cc1 (stereo not shown) | 152 to 155 |
| Cc1ccc(CNC(=O)CCc2oc(-n3cnc4ccccc43)nc2-c2ccc(Cl)cc2)cc1 [Example 125, 3-[2-(1H-benzimidazol-1-yl)-4-(4-chlorophenyl)-5-oxazolyl]-N-(4-methylbenzyl)propionamide] | 241 to 242 |
| CCOP(=O)(Cc1ccc(NC(=O)CCc2ocnc2-c2ccc(Cl)cc2)cc1)OCC | 130 to 131 |
| COC(=O)c1ccc(NC(=O)CCCc2oc(-c3ccccc3)nc2-c2ccc(Cl)cc2)cc1 [Example 50, 4-[4-(4-chlorophenyl)-2-phenyl-5-oxazolyl]-N-[4-(methoxycarbonyl)phenyl]butanamide] | 170 to 171 |

Further lines, results first:

| melting point [°C] | SMILES |
| --- | --- |
| 212 to 213 | NC(=O)CCc1oc(-c2ccc(F)cc2)nc1-c1ccc(Cl)cc1 [Example 23, 3-[4-(4-chlorophenyl)-2-(4-fluorophenyl)-5-oxazolyl]propionamide] |
| 181 to 183 | O=C(CCc1oc(-n2cnc3ccccc32)nc1-c1ccc(Cl)cc1)NCc1cccc(Br)c1 [Example 171, 3-[2-(1H-benzimidazol-1-yl)-4-(4-chlorophenyl)-5-oxazolyl]-N-(3-bromobenzyl)propionamide] |
| 216 to 217 | N#Cc1ccc(NC(=O)CCc2oc(-n3cnc4ccccc43)nc2-c2ccc(Cl)cc2)cc1 [Example 112, 3-[2-(1H-benzimidazol-1-yl)-4-(4-chlorophenyl)-5-oxazolyl]-N-(4-cyanophenyl)propionamide] |
| 190 to 191 | O=C(CCc1oc(-n2cnc3ccccc32)nc1-c1ccc(Cl)cc1)NCc1ccc(F)cc1F [Example 160, 3-[2-(1H-benzimidazol-1-yl)-4-(4-chlorophenyl)-5-oxazolyl]-N-(2,4-difluorobenzyl)propionamide] |
| 210 to 212 | COc1ccc(CNC(=O)CCc2oc(-n3cnc4ccccc43)nc2-c2ccc(Cl)cc2)cc1 [Example 145, 3-[2-(1H-benzimidazol-1-yl)-4-(4-chlorophenyl)-5-oxazolyl]-N-(4-methoxybenzyl)propionamide] |
| 125 to 126 | O=C(CCc1oc(-n2cnc3ccccc32)nc1-c1ccc(Cl)cc1)N1CCSC1 [Example 259, 3-{3-[2-(1H-benzoimidazol-1-yl)-4-(4-chlorophenyl)-5-oxazolyl]propanoyl}thiazolidine] |
| 175 to 176 | NC(=O)CCc1sc(-c2ccccc2)nc1-c1ccc(Cl)cc1 [Example 46, 3-[4-(4-chlorophenyl)-2-phenyl-5-thiazolyl]propionamide] |
| 164 to 165 | CCOP(=O)(Cc1ccc(NC(=O)CCc2sc(-c3ccccc3)nc2-c2ccc(Cl)cc2)cc1)OCC |
| 169 to 170 | CN(C)c1ccc(NC(=O)Cc2ccc(NC(=O)CCc3oc(-n4cnc5ccccc54)nc3-c3ccc(Cl)cc3)cc2)cc1 [Example 140, 2-[4-(N-{3-[2-(1H-benzimidazol-1-yl)-4-(4-chlorophenyl)-5-oxazolyl]propanoyl}amino)phenyl]-N-[4-(dimethylamino)phenyl]acetamide] |
| 160 to 161 | O=C(CCCc1sc(-n2cnc3ccccc32)nc1-c1ccc(Cl)cc1)NCc1cc(Br)ccc1F [Example 216, 4-[2-(1H-benzimidazol-1-yl)-4-(4-chlorophenyl)-5-thiazolyl]-N-(5-bromo-2-fluorobenzyl)butanamide] |
| 217 to 219 | Cc1ccc(Cl)cc1CNC(=O)CCc1oc(-n2cnc3ccccc32)nc1-c1ccc(Cl)cc1 [Example 176, 3-[2-(1H-benzimidazol-1-yl)-4-(4-chlorophenyl)-5-oxazolyl]-N-(5-chloro-2-methylbenzyl)propionamide] |
| 138 to 139 | Cc1ccc(CNC(=O)CCCc2sc(-n3cnc4ccccc43)nc2-c2ccc(Cl)cc2)cc1 [Example 217, 4-[2-(1H-benzimidazol-1-yl)-4-(4-chlorophenyl)-5-thiazolyl]-N-(4-methylbenzyl)butanamide] |
| 191 to 192 | CCOP(=O)(Cc1ccc(NC(=O)CCc2oc(-c3ccc4ccccc4c3)nc2-c2ccc(Cl)cc2)cc1)OCC |
| 248 to 249 | O=C(CCc1oc(-n2cnc3ccccc32)nc1-c1ccc(Cl)cc1)Nc1ccc(Cl)cc1 [Example 79, 3-[2-(1H-benzimidazol-1-yl)-4-(4-chlorophenyl)-5-oxazolyl]-N-(4-chlorophenyl)propionamide] |
| 108 to 109 | CCCc1nc(-c2ccc(Cl)cc2)c(CCC(=O)Nc2ccc(CP(=O)(OCC)OCC)cc2)o1 |
| 218 | CCCc1nc(-c2ccc(Cl)cc2)c(CCC(=O)N2CCN(CC3CCN(C)CC3)CC2)o1.Cl.Cl |
| 149 to 151 | CCOP(=O)(Cc1ccc(NC(=O)CCCCCc2sc(-n3cnc4ccccc43)nc2-c2ccc(Cl)cc2)cc1)OCC |
| 154 to 155 | CN(Cc1ccc(NC(=O)CCc2oc(-c3ccccc3)nc2-c2ccc(Cl)cc2)cc1)C1CCOCC1 [Example 94, 3-[4-(4-chlorophenyl)-2-phenyl-5-oxazolyl]-N-(4-{[N-methyl-N-(4-tetrahydropyranyl)amino]methyl}phenyl)propionamide] |
| 209 to 210 | CCN(CC)C(=O)Cc1ccc(NC(=O)CCc2oc(-n3cnc4ccccc43)nc2-c2ccc(Cl)cc2)cc1 [Example 106, 2-[4-({3-[2-(1H-benzimidazol-1-yl)-4-(4-chlorophenyl)-5-oxazolyl]propanoyl}amino)phenyl]-N,N-diethylacetamide] |
| 101 to 102 | O=C(CCc1oc(-n2cnc3ccccc32)nc1-c1ccc(Cl)cc1)N1CCC(CO)CC1 [Example 305, (1-{3-[2-(1H-benzoimidazol-1-yl)-4-(4-chlorophenyl)-5-oxazolyl]propanoyl}-4-piperidinyl)methanol] |
| 133 to 134 | CN1CCC(N(C)C(=O)CCc2oc(-n3cnc4ccccc43)nc2-c2ccc(Cl)cc2)CC1 [Example 193, 3-[2-(1H-benzimidazol-1-yl)-4-(4-chlorophenyl)-5-oxazolyl]-N-methyl-N-(1-methyl-4-piperidinyl)propionamide] |
